Measurements as given in US20100041612A1, “Fragments of the Glucagon-Like Peptide-1 and Uses Thereof” (priority 2005, published 2010).
Square brackets hold non-standard residues; d marks the D form. Peptide text beside a SMILES is read from it. Bip = N[C@@H](Cc1ccc(-c2ccccc2)cc1)C(=O)O

Legend:
[1] = test system: hyperactive human GLP-1 receptor variant; test: Peptide induced cAMP production (radioimmunoassay) in COS-7 cells transfected with hyperactive GLP-1 receptor variant; type: cell-based; conditions: for EC50: COS-7 cells, hyperactive human GLP-1 receptor variant
Text: The same peptides were used as described above, with the underivatized GLP-1 (7-20) amide represented in FIG. 1B with closed squares (“−bpa”) and the GLP-1 (7-20) carboxy-terminal tethered with a small molecule, biphenylalanine, represented by open squares (“+bpa”).

[2] = test system: Zucker diabetic fatty (ZDF) rats; test: Preclinical trial protocol in Zucker diabetic fatty (ZDF) rats: blood glucose and islet cell mass; type: in vivo, rat; conditions: versus saline; for blood glucose levels: 1 μg/kg/day to 100 mg/kg/day; for islet cell mass in pancreases: histology
Procedure: In this example, qualified animal models for diabetes are employed to examine the dose ranges of GLP-1 (7-20).
Treatment with GLP-1 (7-20) Animal Model. Zucker diabetic fatty (ZDF) rats are a well characterized type 2 diabetes animal model. (Suh Y H, et al. J Mol. Endocrinol. 2005 April; 34(2):299-315.)
Doses of GLP-1 (7-20) range from 1 μg/kg/day to 100 mg/kg/day.
Treatment. Cohorts are treated in 2 arms with 2-4 dose ranges of GLP-1 (7-20) amide and a placebo, at a compensated dose for animal size, metabolism and circulation. Arm 1: saline, Arm 2: GLP-1 (7-20) amide.
Study Assessment. Blood glucose levels are measured every week with a One Touch II glucose meter (Lifescan). Blood insulin levels are also measured. Rats are considered diabetic after 2 consecutive blood glucose measurements over 300 mg/dl. For histological analysis, pancreases are snap-frozen. Multiple 5-μm sections are stained with hematoxylin and eosin and scored blindly for islet cell mass as known in the art. […]
Animal Model. Zucker diabetic fatty (ZDF) rats are a well characterized type 2 diabetes animal model. (Suh Y H, et al. J Mol Endocrinol. 2005 April; 34(2):299-315.) […]
Treatment. Cohorts are treated in 6 arms with 2-4 dose ranges of each drug and a placebo, at a compensated dose for animal size, metabolism and circulation. Arm 1: saline, Arm 2: GLP-1 (7-20)−bpa; Arm 3: GLP-1 (7-20)+bpa; Arm 4: GLP-1 (7-20)−bpa plus pravastatin; Arm 5: GLP-1 (7-20)+bpa plus pravastatin; Arm 6: GLP-1 (7-20)−bpa plus GLP-1 (7-20)+bpa plus pravastatin.
Study Assessment. Blood glucose levels are measured every week with a One Touch II glucose meter (Lifescan). Blood insulin levels are also measured. Rats are considered diabetic after 2 consecutive measurements over 300 mg/dl. For histological analysis, pancreases are snap-frozen. Multiple 5-μm sections are stained with hematoxylin and eosin and scored blindly for islet cell mass as known in the art.

[3] = target: wild-type human GLP-1 receptor (Homo sapiens, UniProt P43220); test: Peptide induced cAMP production (radioimmunoassay) in COS-7 cells transfected with wild-type GLP-1 receptor
wild-type human GLP-1 receptor, sequence (P43220 24-463): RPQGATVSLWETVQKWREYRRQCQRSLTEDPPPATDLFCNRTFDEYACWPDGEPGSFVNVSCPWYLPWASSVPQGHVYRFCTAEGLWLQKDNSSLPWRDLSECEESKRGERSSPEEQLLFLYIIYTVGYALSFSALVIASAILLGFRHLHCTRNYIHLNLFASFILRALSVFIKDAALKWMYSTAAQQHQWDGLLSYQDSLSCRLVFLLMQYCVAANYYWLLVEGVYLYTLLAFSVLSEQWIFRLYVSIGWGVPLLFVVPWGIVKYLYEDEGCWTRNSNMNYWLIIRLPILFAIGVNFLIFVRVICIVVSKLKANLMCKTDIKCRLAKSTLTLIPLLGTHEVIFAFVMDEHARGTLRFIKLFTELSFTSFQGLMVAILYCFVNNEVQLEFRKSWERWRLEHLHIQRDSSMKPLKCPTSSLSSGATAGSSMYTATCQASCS
Procedure: COS-7 cells were transiently transfected with cDNA encoding the wild-type human GLP-1 receptor. Peptide induced cAMP production was measured by radioimmunoassay.

Structure (SMILES)	EC50 [1] [µM]	potency increase compared to the function of this peptide at the wild type receptor ([1]; hyperactive versus wild type receptor) [fold]	blood glucose levels [2]	islet cell mass in pancreases [2]	affinity for the GLP-1 receptor compared with full length GLP-1 ([3]; statement referring to Example 1)	higher potency than GLP-1 (7-20) amide -bpa at the hyperactive receptor ([1]; hyperactive receptor, +bpa versus -bpa) [fold]	potency increase by carboxy-terminal tethering of biphenylalanine ([3]; versus underivatized GLP-1 (7-20) amide, wild-type receptor) [fold]
CC(C)C[C@H](NC(=O)[C@H](Cc1ccc(O)cc1)NC(=O)[C@H](CO)NC(=O)[C@H](CO)NC(=O)[C@@H](NC(=O)[C@H](CC(=O)O)NC(=O)[C@H](CO)NC(=O)[C@@H](NC(=O)[C@H](Cc1ccccc1)NC(=O)[C@@H](NC(=O)CNC(=O)[C@H](CCC(=O)O)NC(=O)[C@H](C)NC(=O)[C@@H](N)Cc1c[nH]cn1)[C@@H](C)O)[C@@H](C)O)C(C)C)C(N)=O [GLP-1 (7-20) amide] (H-HAEGTFTSDVSSYL-NH2; N-terminus assumed)	24	10	pronounced reduction	increased	lower affinity than full length GLP-1		
CC(C)C[C@H](NC(=O)[C@H](Cc1ccc(O)cc1)NC(=O)[C@H](CO)NC(=O)[C@H](CO)NC(=O)[C@@H](NC(=O)[C@H](CC(=O)O)NC(=O)[C@H](CO)NC(=O)[C@@H](NC(=O)[C@H](Cc1ccccc1)NC(=O)[C@@H](NC(=O)CNC(=O)[C@H](CCC(=O)O)NC(=O)[C@H](C)NC(=O)[C@@H](N)Cc1c[nH]cn1)[C@@H](C)O)[C@@H](C)O)C(C)C)C(=O)N[C@@H](Cc1ccc(-c2ccccc2)cc1)C(N)=O [GLP-1 (7-20)+bpa] (H-HAEGTFTSDVSSYL[Bip]-NH2; N-terminus and C-terminus assumed)	2		pronounced reduction	increased		10	22
